Molecular target: T1, CX43 (connexin 43; recombinant human CX43) (Homo sapiens, UniProt P17302)
T1 construct: gene GJA1; recombinant human CX43 from GenScript, immobilised on CM5 chip
Test: SPR, Biacore T200, CX43 immobilised on CM5 chip
Format: binding

T1 sequence (P17302 2-382): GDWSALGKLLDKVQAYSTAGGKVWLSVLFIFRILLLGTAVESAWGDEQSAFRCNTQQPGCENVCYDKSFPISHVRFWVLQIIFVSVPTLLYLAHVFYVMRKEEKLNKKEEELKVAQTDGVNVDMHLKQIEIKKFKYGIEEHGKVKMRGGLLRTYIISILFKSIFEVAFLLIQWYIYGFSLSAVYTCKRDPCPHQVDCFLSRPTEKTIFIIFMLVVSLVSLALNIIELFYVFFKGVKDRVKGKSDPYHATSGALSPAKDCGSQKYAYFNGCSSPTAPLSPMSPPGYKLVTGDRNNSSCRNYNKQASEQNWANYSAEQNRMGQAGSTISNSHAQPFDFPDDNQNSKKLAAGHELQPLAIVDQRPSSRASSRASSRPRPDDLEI

Kd: 0.0142 nM
Structure (SMILES): NC(=O)c1ccc[n+]([C@@H]2O[C@H](COP(=O)([O-])OP(=O)(O)OC[C@H]3O[C@@H](n4cnc5c(N)ncnc54)[C@H](O)[C@@H]3O)[C@@H](O)[C@H]2O)c1 [NAD^+]

Reference: publication PMC12559800, “A NADH Oxidase Nanozyme Restores Redox Homeostasis to Ameliorate Multi-Organ Aging and Ischemic Cardiomyopathy” (Research, 2025)
